Where two headings read alike, the source gives them in different places.
Target: T1, human Ox2R (Homo sapiens, UniProt O43614)
T1 construct: The gene encoding hOx2R was subcloned into the expression plasmid pcDNA5/FRT/TO; expressed in transfected cells; host or cells: CHO Flp-In cells (pcDNA5/FRT/TO with pOG44 Flp recombinase vector, hygromycin B selection)
T1 sequence (O43614 1-444): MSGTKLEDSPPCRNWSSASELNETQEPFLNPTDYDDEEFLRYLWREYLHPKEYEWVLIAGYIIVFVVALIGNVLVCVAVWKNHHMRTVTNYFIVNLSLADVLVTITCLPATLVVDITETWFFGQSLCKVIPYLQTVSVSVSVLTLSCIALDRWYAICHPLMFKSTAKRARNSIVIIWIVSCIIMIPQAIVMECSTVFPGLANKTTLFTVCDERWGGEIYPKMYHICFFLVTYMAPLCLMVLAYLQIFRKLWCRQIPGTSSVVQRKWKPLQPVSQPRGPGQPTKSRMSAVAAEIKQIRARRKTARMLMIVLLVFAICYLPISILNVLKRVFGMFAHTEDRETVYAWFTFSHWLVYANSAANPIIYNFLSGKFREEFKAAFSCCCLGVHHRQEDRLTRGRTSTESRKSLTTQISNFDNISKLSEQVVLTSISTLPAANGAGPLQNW
Assay: Measurement of OX2R agonist activity (cell-based calcium release assay)
Details: for EC50: intracellular calcium
Procedure, shortened: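 CHO Flp-In cells stably expressing human Ox2R, dye-loaded 1 h at 37 °C in HBSS/20 mM HEPES pH 7.4 with 2.5 mM probenecid and 10 mM CaCl2, then stimulated with compound.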

[1] = hOx2R-CHO Flp-In cells, n≥2 tests, read-out: EC50
[2] = hOx2R-CHO Flp-In cells, normalized to assay buffer (0%) and 10 μM Danavorexton (100%), n≥2 tests, read-out: Emax (%)

SMILES	EC50 [1] [nM]	Emax [2] [%]	Emax [%]	EC50 (EC50 (nM), hOx2R-CHO Flp-In cells, n≥2 tests) [nM]	Emax (%) (hOx2R-CHO Flp-In cells, normalized to assay buffer (0%) and 10 μM Danavorexton (100%), n≥2 tests)
CS(=O)(=O)N[C@H]1CC[C@@]2(CO[C@H]3CC[C@H](CC3)c3ccccc3OCc3coc2n3)C1 [Example 2, N-[(1s,1′S,14R,17s)-spiro[8,12,16-trioxa-22-azatetracyclo[15.2.2.110,13.02,7]docosa-2,4,6,10,13(22)-pentaene-14,3′-cyclopentane]-1′-yl]methanesulfonamide]	0.43	99	–	–	–
CS(=O)(=O)N[C@H]1CC[C@@]2(Cc3ccc(C(F)(F)F)c(c3)-c3cccc(F)c3OCc3coc2n3)C1 [Example 23, N-[(1′S,14R)-6-fluoro-19-(trifluoromethyl)spiro[8,12-dioxa-21-azatetracyclo[14.3.1.110,13.02,7]henicosa-1(19),2,4,6,10,13(21),16(20),17-octaene-14,3′-cyclopentane]-1′-yl]methanesulfonamide]	1.3	98	–	–	–
[2H]C1([2H])Oc2c(F)cccc2-c2cc(ccc2F)C[C@@]2(CC[C@H](NS(C)(=O)=O)C2)c2nc1co2 [Example 6, N-[(1′S,14R)-9,9-dideuterio-6,19-difluoro-spiro[8,12-dioxa-21-azatetracyclo[14.3.1.110,13.02,7]henicosa-1(19),2,4,6,10,13(21),16(20),17-octaene-14,3′-cyclopentane]-1′-yl]methanesulfonamide]	0.11	100	–	–	–
CS(=O)(=O)N[C@H]1CC[C@@]2(Cc3ccnc(c3)-c3cccc(F)c3OCc3coc2n3)C1 [Example 19, N-[(1′S,14R)-6-fluorospiro[8,12-dioxa-19,21-diazatetracyclo[14.3.1.110,13.02,7]henicosa-1(19),2,4,6,10,13(21),16(20),17-octaene-14,3′-cyclopentane]-1′-yl]methanesulfonamide]	35	100	–	–	–
CS(=O)(=O)N[C@H]1CC[C@@]2(CO[C@H]3CC[C@H](CC3)c3ccccc3OCc3nc2no3)C1 [Example 65, N-[(1s,1′S,14R,17s)-spiro[8,11,16-trioxa-12,22-diazatetracyclo[15.2.2.110,13.02,7]docosa-2,4,6,10(22),12-pentaene-14,3′-cyclopentane]-1′-yl]methanesulfonamide]	45	99	–	–	–
CCS(=O)(=O)N[C@H]1CC[C@@]2(Cc3ccc(F)c(c3)-c3ccccc3OCc3coc2n3)C1 [Example 11, N-[(1′S,14R)-19-fluorospiro[8,12-dioxa-21-azatetracyclo[14.3.1.110,13.02,7]henicosa-1(19),2,4,6,10,13(21),16(20),17-octaene-14,3′-cyclopentane]-1′-yl]ethanesulfonamide]	0.68	97	–	–	–
C[C@H]1C[C@H](NS(C)(=O)=O)C[C@]12Cc1ccc(F)c(c1)-c1cccc(F)c1OCc1ccnc2n1 (single isomer, unassigned) [Example 94, N-[(1′S,4′S,15R)-6,20-difluoro-4′-methyl-spiro[8-oxa-13,22-diazatetracyclo[15.3.1.110,14.02,7]docosa-1(20),2,4,6,10,12,14(22),17(21),18-nonaene-15,3′-cyclopentane]-1′-yl]methanesulfonamide or N-[(1′R,4′R,15S)-6,20-difluoro-4′-methyl-spiro[8-oxa-13,22-diazatetracyclo[15.3.1.110,14.02,7]docosa-1(20),2,4,6,10,12,14(22),17(21),18-nonaene-15,3′-cyclopentane]-1′-yl]methanesulfonamide]	–	–	94	6.7	–
C[C@@H]1C[C@@H](NS(C)(=O)=O)C[C@@]12Cc1ccc(F)c(c1)-c1ccccc1OCc1coc2n1 [Example 63, N-[(1′R,4′R,14S)-19-fluoro-4′-methyl-spiro[8,12-dioxa-21-azatetracyclo[14.3.1.110,13.02,7]henicosa-1(19),2,4,6,10,13(21),16(20),17-octaene-14,3′-cyclopentane]-1′-yl]methanesulfonamide or N-[(1′S,4′S,14R)-19-fluoro-4′-methyl-spiro[8,12-dioxa-21-azatetracyclo[14.3.1.110,13.02,7]henicosa-1(19),2,4,6,10,13(21),16(20),17-octaene-14,3′-cyclopentane]-1′-yl]methanesulfonamide]	1.4	–	–	–	100

Continued, in another order:

EC50 [1] [nM]	Emax [2] [%]	SMILES	Emax [%]	EC50 (EC50 (nM), hOx2R-CHO Flp-In cells, n≥2 tests) [nM]	Emax (%) (hOx2R-CHO Flp-In cells, normalized to assay buffer (0%) and 10 μM Danavorexton (100%), n≥2 tests)
2	100	CS(=O)(=O)N[C@H]1CC[C@@]2(Cc3ccc(F)c(c3)-c3ccc(F)c(F)c3OCc3ccnc2n3)C1 [Example 87, N-[(1′S,15R)-5,6,20-trifluorospiro[8-oxa-13,22-diazatetracyclo[15.3.1.110,14.02,7]docosa-1(21),2,4,6,10,12,14(22),17,19-nonaene-15,3′-cyclopentane]-1′-yl]methanesulfonamide]	–	–	–
9900	66	CS(=O)(=O)N[C@H]1CC[C@@]2(Cc3cccc(n3)-c3ccccc3OCc3coc2n3)C1 [Example 80, N-[(1′S,14S)-spiro[8,12-dioxa-20,21-diazatetracyclo[14.3.1.110,13.02,7]henicosa-1(20),2,4,6,10,13(21),16,18-octaene-14,3′-cyclopentane]-1′-yl]methanesulfonamide]	–	–	–
0.32	100	CS(=O)(=O)N[C@H]1CC[C@@]2(Cc3ccc(F)c(c3)-c3cc(F)cc(F)c3OCc3ccnc2n3)C1 [Example 91, N-[(1′S,15R)-4,6,20-trifluorospiro[8-oxa-13,22-diazatetracyclo[15.3.1.110,14.02,7]docosa-1(20),2,4,6,10,12,14(22),17(21),18-nonaene-15,3′-cyclopentane]-1′-yl]methanesulfonamide]	–	–	–
1.5	98	Cc1oc2nc1COc1ccccc1-c1cccc(c1)C[C@@]21CC[C@H](NS(C)(=O)=O)C1 [Example 68, N-[(1′S,14R)-11-methylspiro[8,12-dioxa-21-azatetracyclo[14.3.1.110,13.02,7]henicosa-1(19),2,4,6,10,13(21),16(20),17-octaene-14,3′-cyclopentane]-1′-yl]methanesulfonamide]	–	–	–
0.25	100	CCS(=O)(=O)N[C@H]1CC[C@@]2(Cc3cc(c(F)cc3F)-c3cccc(F)c3OCc3coc2n3)C1 [Example 84, N-[(1′S,14R)-6,17,19-trifluorospiro[8,12-dioxa-21-azatetracyclo[14.3.1.110,13.02,7]henicosa-1(19),2,4,6,10,13(21),16(20),17-octaene-14,3′-cyclopentane]-1′-yl]ethanesulfonamide]	–	–	–
1.8	98	CS(=O)(=O)N[C@H]1CC[C@@]2(CO[C@H]3CC[C@H](CC3)c3cccc(c3)OCCc3coc2n3)C1 [Example 70, N-[(1s,1′S,14R,17s)-spiro[7,12,16-trioxa-22-azatetracyclo[15.2.2.12,6.110,13]tricosa-2,4,6(23),10,13(22)-pentaene-14,3′-cyclopentane]-1′-yl]methanesulfonamide]	–	–	–
8	100	CS(=O)(=O)N[C@H]1CC[C@@]2(Cc3ccc(F)c(c3)-c3cccc(F)c3OCc3nccc2n3)C1 [Example 95, N-[(1′S,15R)-6,20-difluorospiro[8-oxa-11,22-diazatetracyclo[15.3.1.110,14.02,7]docosa-1(20),2,4,6,10,12,14(22),17(21),18-nonaene-15,3′-cyclopentane]-1′-yl]methanesulfonamide]	–	–	–
1.4	100	CS(=O)(=O)N[C@H]1CC[C@]2(CC1)Cc1cccc(c1)-c1cccc(F)c1OCc1coc2n1 [Example 75, N-(cis)-(6-fluorospiro[8,12-dioxa-21-azatetracyclo[14.3.1.110,13.02,7]henicosa-1(20),2,4,6,10,13(21),16,18-octaene-14,4′-cyclohexane]-1′-yl)methanesulfonamide]	–	–	–
3.7	100	CS(=O)(=O)N[C@H]1CC[C@@]2(Cc3ccc(F)c(c3)-c3cccc(F)c3OCc3ccnc2n3)C1 [Example 82, N-[(1′S,15R)-6,20-difluorospiro[8-oxa-13,22-diazatetracyclo[15.3.1.110,14.02,7]docosa-1(20),2(7),3,5,10,12,14(22),17(21),18-nonaene-15,3′-cyclopentane]-1′-yl]methanesulfonamide]	–	–	–
0.19	110	O=S(=O)(N[C@H]1CC[C@@]2(Cc3ccc(F)c(c3)-c3cccc(F)c3OCc3coc2n3)C1)C(F)(F)F [Example 114, N-[(1′S,14R)-6,19-difluorospiro[8,12-dioxa-21-azatetracyclo[14.3.1.110,13.02,7]henicosa-1(19),2(7),3,5,10,13(21),16(20),17-octaene-14,3′-cyclopentane]-1′-yl]-1,1,1-trifluoro-methanesulfonamide]	–	–	–

From patent US12590106B2, “Spiromacrocyclic orexin 2 receptor agonists” (H. Lundbeck A/S, priority 2023, dated 2026)
